Experimental data taken from patent US20060128605A1, “Preventives/remedies for snore or respiratory disturbances during sleep” (AJINOMOTO CO. INC, priority 2003, published 2006).

Columns and labels:
[1] = system: sleep apnea and SpO2 decrease during sleep; settings: Experiment 3, glycine tablets (4 tablets) before bedtime
Protocol: (§1) In addition, sleep apnea and arterial blood oxygen saturation (SpO2) were evaluated using a sleep tester LT-200 manufactured by FUKUDA DENSHI Co., Ltd. (Japan). […] The test recipient was completely free of regular medication, and had no habit of taking nutritional supplements or nutritional supports. […] The test recipient took an appropriate number (2-4) of the glycine tablets or the control tablets, and interviewed a family member the next morning as to the presence or absence of snoring and the level thereof, without informing the family member of the kind of the tablets and whether they took the tablets.
The arterial blood oxygen saturation (SpO2) and air flow in the mouth-nose during sleep were measured using a sleep tester LT-200 manufactured by FUKUDA DENSHI Co., Ltd. The arterial blood oxygen saturation (SpO2) was measured using a sensor attached to the tip of the second finger of the left hand, and a decrease in the arterial blood oxygen saturation (SpO2) to not more than 93% which lasted for not less than 10 seconds was taken as SpO2 decrease. The number of SpO2 decrease per one day and per one hour and the minimum SpO2 of one day were determined. The air flow in the mouth-nose part was measured by a thermocapsule method, and a decrease in the flow in the mouth-nose part to not more than 50% which lasted for not less than 10 sec was defined as hypopnea. The occurrence of SpO2 decrease along with hypopnea was counted as apnea and the number of apnea per one day and per one hour was determined. Simultaneously, tracheal sounds during sleep were picked up through a mike set near laryngeal prominence.
The sleep apnea suppressing effect of glycine was evaluated. […] Tracheal sounds during sleep, which is considered to reflect the snoring sound, were simultaneously recorded.

[2] = system: male adults having sleep apnea syndrome; settings: glycine 3 g 1 hour before sleep
Protocol: For confirmation of the effect of glycine on respiratory disorders during sleep, a double blind crossover test was performed with 10 male adults having sleep apnea syndrome as evidenced by more than 5 of the following AHI (apnea hypopnea index per 1 hour). Glycine (3 g) was administered 1 hour before sleep and, as the placebo, maltose adjusted to an indistinguishable taste was used.
Sleep polygraph data such as electroencephalogram, electromyogram, arterial blood oxygen saturation, and the like during sleep were measured using the Alice system manufactured by Respironics Co., Ltd. (USA). The air flow of the mouth-nose part was measured, and hypopnea was defined to mean a state where a decrease to not more than 50% requires not less than 10 second to recover to not less than 60%. Furthermore, a decrease in the arterial blood oxygen saturation by not less than 3% associated with hypopnea was taken as apnea. The total of the incidents of apnea and hypopnea per 1 hour was taken as an apnea hypopnea index (AHI) and used as a severity index of respiratory disorder during sleep.

[3] = system: snoring of the test recipient during sleep; test: snoring evaluation by a family member after tablets taken before bedtime; format: in vivo, human; settings: Experiment 1
Protocol: as §1
The presence or absence of snoring during sleep was evaluated the next morning by a family member into three levels of minus (−; snoring was not heard or like sleep breath), plus (+; medium level snoring), two plus (++; extremely noisy and severe snoring). The presence or absence of snoring when the glycine tablets and control tablets were taken before bedtime, and nothing was taken before bedtime was counted.

sleep apnea syndrome = settings: animal experiments using rats; cited from earlier work
[4] = SpO2 not more than 93% for not less than 10 seconds
[5] = 2 glycine tablets (glycine 490 mg) before bedtime, 9 days of observation
[6] = 4 glycine tablets (glycine 980 mg) before bedtime, 8 days of observation

NCC(=O)O [glycine]
SpO2 lowest value during sleep [1]: 88 ± 1% | apnea (times/day) [1]: 11 ± 4 times/day | apnea (times/hr) [1]: 1.9 ± 0.9 times/hr | SpO2 decrease (times/day) [1, 4]: 14 ± 5 times/day | SpO2 decrease (times/hr) [1, 4]: 2.5 ± 1.2 times/hr | average value of AHI, test recipients of 40 years old or over with BMI exceeding 28 ([2]; 4 cases, placebo 18.9 (p=0.046)): 10.6 | average value of AHI, test recipients of 40 years old or over ([2]; 6 cases, entire sleep stage, placebo 17.2 (p=0.062)): 11.5 | respiratory disorder (hypopnea or apnea, AHI) in the early stage of sleep ([2]; early stage of sleep (3 hours), FIG. 4 right graph): improved | average value of AHI, nonrem sleep stage (NREM) ([2]; entire sleep stage, 10 male adults, placebo 11.3): 10.8 | average value of AHI, entire period (Total) of rem and nonrem sleep stage ([2]; entire sleep stage, 10 male adults, placebo 15.0): 13.4 | average value of AHI, rem sleep stage (REM) ([2]; entire sleep stage, 10 male adults, placebo 33.5): 26.8 | snoring evaluation results ++, number of days (severe snoring) [3, 5]: 2 days | snoring evaluation results ++, percentage of total observation days [3, 5]: (22%) | snoring evaluation results +, number of days (medium level snoring) [3, 5]: 3 days | snoring evaluation results +, percentage of total observation days [3, 5]: (33%) | snoring evaluation results −, number of days (snoring not heard or like sleep breath) [3, 5]: 4 days | snoring evaluation results −, percentage of total observation days [3, 5]: (44%) | snoring evaluation results ++, number of days (severe snoring) [3, 6]: 0 days | snoring evaluation results ++, percentage of total observation days [3, 6]: (0% a)) | snoring evaluation results +, number of days (medium level snoring) [3, 6]: 2 days | snoring evaluation results +, percentage of total observation days [3, 6]: (25%) | snoring evaluation results −, number of days (snoring not heard or like sleep breath) [3, 6]: 6 days | snoring evaluation results −, percentage of total observation days [3, 6]: (75%)

Nc1nc2ccc(OC(F)(F)F)cc2s1 [riluzole]
effectiveness for the treatment of sleep apnea syndrome (sleep apnea syndrome): has been confirmed
